In patent US20120225061A1, “TETRASUBSTITUTED CYCLOHEXYL COMPOUNDS AS KINASE INHIBITORS” (priority 2011, published 2012):
Read-outs that look alike come from different tables or passages of the source.

Legend:
[1] = molecular target: T1, Pim2 kinase (Homo sapiens, UniProt Q9P1W9); assay: KinaseGlo Pim2 ATP depletion assay; assay type: biochemical; details: Table 4, 5 nM PIM2, 4 μM ATP, 10 μM BAD peptide
Protocol: The activity of PIM2 is measured using a luciferase-luciferin based ATP detection reagent to quantify ATP depletion resulting from kinase-catalyzed phosphoryl transfer to a peptide substrate. Compounds to be tested are dissolved in 100% DMSO and directly distributed into white 384-well plates at 0.5 μl per well. […] After 15 minutes, 10 μl of 8 μM ATP in assay buffer is added. Final assay concentrations are 5 nM PIM2, 4 μM ATP, 10 μM BAD peptide and 2.5% DMSO. The reaction is performed until approximately 50% of the ATP is depleted, then stopped with the addition of 20 μl KinaseGlo Plus (Promega Corporation) solution. The stopped reaction is incubated for 10 minutes and the remaining ATP detected via luminescence on the Victor2 (Perkin Elmer).

[2] = system: KMS11 (human myeloma cell line); assay: Cell proliferation assay (CellTiter-Glo) in KMS11 cells; assay type: cell-based; details: KMS-11, 72 h, read-out: KMS11-luc EC50
Outline: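 KMS11 cells at 2000 per well in IMDM/10% FBS were exposed to compound for 3 days. Viability was read by CellTiter-Glo luminescence.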

[3] = molecular target: Pim1 kinase (Homo sapiens, UniProt P11309); assay: Pim1 AlphaScreen assay (high ATP)
Protocol: The activity of Pim 1, Pim 2, & Pim 3 is measured using a homogeneous bead based system quantifying the amount of phosphorylated peptide substrate resulting from kinase-catalyzed phosphoryl transfer to a peptide substrate. Compounds to be tested are dissolved in 100% DMSO and directly distributed to a white 384-well plate at 0.25 μl per well. […] This is followed by the addition of 5 μl/well of Pim 1, Pim 2 or Pim 3 kinase in assay buffer (concentrations described below). Final assay concentrations (described below) are in 2.5% DMSO. The reactions are performed for ˜2 hours, then stopped by the addition of 10 μl of 0.75 μg/ml anti-phospho Ser/Thr antibody (Cell Signaling), 10 μg/ml Protein A AlphaScreen beads (Perkin Elmer), and 10 μg/ml streptavidin coated AlphaScreen beads in stop/detection buffer (50 mM EDTA, 95 mM Tris, pH=7.5, 0.01% Tween-20). The stopped reactions are incubated overnight in the dark. The phosphorylated peptide is detected via an oxygen anion initiated chemiluminescence/fluorescence cascade using the Envision plate reader (Perkin Elmer).

[4] = molecular target: T1, Pim2 kinase; assay: Pim2 AlphaScreen assay (high ATP)
[5] = molecular target: Pim3 kinase (Homo sapiens, UniProt Q86V86); assay: Pim3 AlphaScreen assay (high ATP)

T1 sequence (Q9P1W9 whole entry): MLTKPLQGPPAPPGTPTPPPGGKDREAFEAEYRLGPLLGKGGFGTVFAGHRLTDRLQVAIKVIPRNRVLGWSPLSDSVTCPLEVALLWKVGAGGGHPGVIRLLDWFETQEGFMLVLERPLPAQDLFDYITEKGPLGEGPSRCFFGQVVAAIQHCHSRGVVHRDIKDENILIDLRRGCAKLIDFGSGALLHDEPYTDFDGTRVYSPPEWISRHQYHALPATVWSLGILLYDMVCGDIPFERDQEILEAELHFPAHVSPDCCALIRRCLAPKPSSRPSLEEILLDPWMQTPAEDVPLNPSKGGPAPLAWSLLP
Sequence of Pim1 kinase (P11309 whole entry): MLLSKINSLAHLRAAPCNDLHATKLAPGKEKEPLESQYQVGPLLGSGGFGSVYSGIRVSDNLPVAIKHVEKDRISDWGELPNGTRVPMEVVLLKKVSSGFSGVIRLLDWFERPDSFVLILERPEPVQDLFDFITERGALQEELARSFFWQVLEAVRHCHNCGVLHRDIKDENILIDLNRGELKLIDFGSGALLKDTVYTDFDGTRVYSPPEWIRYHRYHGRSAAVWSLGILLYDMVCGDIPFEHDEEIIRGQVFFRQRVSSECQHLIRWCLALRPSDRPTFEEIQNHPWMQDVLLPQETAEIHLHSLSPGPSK

| Structure (SMILES) | IC50 [1] [nM] | EC50 ([2]; Table 4, 3 days) [nM] | EC50 ([2]; Table 5, 3 days) [nM] | IC50 [3] [nM] | IC50 [4] [nM] | IC50 [5] [nM] |
| --- | --- | --- | --- | --- | --- | --- |
| C[C@@H]1C[C@H](c2ccncc2NC(=O)c2csc(-c3c(F)cccc3F)n2)C[C@H](N)[C@@]1(C)O [Example 25, N-(4-((1S,3S,4S,5R)-3-amino-4-hydroxy-4,5-dimethylcyclohexyl)pyridin-3-yl)-2-(2,6-difluorophenyl)thiazole-4-carboxamide] | 2010 |  |  | 111 | 8130 | 992 |
| C[C@H]1C[C@@H](c2ccncc2NC(=O)c2csc(-c3c(F)cccc3F)n2)C[C@@H](N)[C@]1(C)O [Example 26, N-(4-((1R,3R,4R,5S)-3-amino-4-hydroxy-4,5-dimethylcyclohexyl)pyridin-3-yl)-2-(2,6-difluorophenyl) thiazole-4-carboxamide] | 20.8 |  |  | 1.9 | 109 | 17.2 |
| C[C@H]1C[C@@H](c2ccncc2NC(=O)c2ccc(F)c(-c3c(F)cccc3F)n2)C[C@@H](N)[C@]1(C)O [Example 27, N-(4-((1R,3R,4R,5S)-3-amino-4-hydroxy-4,5-dimethylcyclohexyl)pyridin-3-yl)-6-(2,6-difluorophenyl)-5-fluoropicolinamide] | 3.8 | 140 | 138 | 0.11 | 5.73 | 0.99 |
| C[C@@H]1C[C@H](c2ccncc2NC(=O)c2ccc(F)c(-c3c(F)cccc3F)n2)C[C@H](N)[C@@]1(C)O [Example 28, N-(4-((1S,3S,4S,5R)-3-amino-4-hydroxy-4,5-dimethylcyclohexyl)pyridin-3-yl)-6-(2,6-difluorophenyl)-5-fluoropicolinamide] | 229 |  |  | 18.3 | 476 | 138 |
| C[C@@H]1C[C@H](c2ccncc2NC(=O)c2ccc(F)c(-c3c(F)cccc3F)n2)C[C@H](O)[C@]1(O)CF [Example 29, 6-(2,6-difluorophenyl)-5-fluoro-N-(4-((1S,3S,4S,5R)-4-(fluoromethyl)-3,4-dihydroxy-5-methylyclohexyl)pyridin-3-yl) picolinamide] | 14.9 | 3270 | 3270 | 6.7 | 428 | 201 |
| C[C@H]1C[C@@H](c2ccncc2NC(=O)c2ccc(F)c(-c3c(F)cccc3F)n2)C[C@@H](O)[C@@]1(O)CF [Example 30, 6-(2,6-difluorophenyl)-5-fluoro-N-(4-((1R,3R,4R,5S)-4-(fluoromethyl)-3,4-dihydroxy-5-methylcyclohexyl)pyridin-3-yl) picolinamide] | 2.2 | 130 | 133 | 0.71 | 50.1 | 22.8 |
| C[C@H]1C[C@@H](c2ccncc2NC(=O)c2ccc(F)c(-c3ccc(F)c(F)c3)n2)C[C@@H](O)[C@]1(C)O [Example 31, 6-(3,4-difluorophenyl)-N-(4-((1R,3R,4R,5S)-3,4-dihydroxy-4,5-dimethylcyclohexyl)pyridin-3-yl)-5-fluoropicolinamide] | 93.4 | ≥ 10000 | > 10000 | 215 | 22100 | 5480 |
| C[C@H]1C[C@@H](c2ccncc2NC(=O)c2nc(-c3nc(F)ccc3F)ccc2N)C[C@@H](O)[C@]1(C)O [Example 125, 5-amino-N-(4-((1R,3R,4R,5S)-3,4-dihydroxy-4,5-dimethylcyclohexyl)pyridin-3-yl)-3′,6′-difluoro-2,2′-bipyridine-6-carboxamide] | 5.9 |  |  | 23.1 | 2140 | 601 |
| C[C@H]1C[C@@H](c2ccncc2NC(=O)c2nc(-c3cccc(F)n3)c(F)cc2N)C[C@@H](O)[C@]1(C)O [Example 126, 5-amino-N-(4-((1R,3R,4R,5S)-3,4-dihydroxy-4,5-dimethylcyclohexyl)pyridin-3-yl)-3,6′-difluoro-2,2′-bipyridine-6-carboxamide] | 43.1 | 8030 | 8030 | 40.1 | 14200 | 3520 |
| CCOc1cccc(-c2ccc(N)c(C(=O)Nc3cnccc3[C@H]3C[C@@H](O)[C@](C)(O)[C@@H](C)C3)n2)n1 [Example 127, 5-amino-N-(4-((1R,3R,4R,5S)-3,4-dihydroxy-4,5-dimethylcyclohexyl)pyridin-3-yl)-6′-ethoxy-2,2′-bipyridine-6-carboxamide] | 20 | 1390 | 1390 | 11.9 | 9180 | 619 |

Next, values leading:

| IC50 [1] [nM] | EC50 ([2]; Table 4, 3 days) [nM] | EC50 ([2]; Table 5, 3 days) [nM] | IC50 [3] [nM] | IC50 [4] [nM] | IC50 [5] [nM] | Structure (SMILES) |
| --- | --- | --- | --- | --- | --- | --- |
| 8.8 | 8960 | 8960 | 9.82 | 2140 | 383 | C[C@H]1C[C@@H](c2ccncc2NC(=O)c2nc(-c3ncccc3F)c(F)cc2N)C[C@@H](O)C1(C)O (stereo in doubt) [Example 130, 5-amino-N-(4-((1R,3R,4R,5S)-3,4-dihydroxy-4,5-dimethylcyclohexyl)pyridin-3-yl)-3,3′-difluoro-2,2′-bipyridine-6-carboxamide] |
| 9.7 | ≥ 10000 | > 10000 | 29 | 2310 | 1070 | C[C@H]1C[C@@H](c2ccncc2NC(=O)c2nc(-c3nc(F)c(F)cc3F)ccc2N)C[C@@H](O)[C@]1(C)O [Example 128, 5-amino-N-(4-((1R,3R,4R,5S)-3,4-dihydroxy-4,5-dimethylcyclohexyl)pyridin-3-yl)-3′,5′,6′-trifluoro-2,2′-bipyridine-6-carboxamide] |
| 20.1 | 3300 | 3300 | 57.7 | 8160 | 1710 | C[C@H]1C[C@@H](c2ccncc2NC(=O)c2nc(-c3ccc(F)c(F)c3)ccc2N)C[C@@H](O)[C@]1(C)O [Example 129, 3-amino-6-(3,4-difluorophenyl)-N-(4-((1R,3R,4R,5S)-3,4-dihydroxy-4,5-dimethylcyclohexyl)pyridin-3-yl)picolinamide] |
| 51.6 | ≥ 10000 | > 10000 | 146 | 17000 | 5090 | C[C@H]1C[C@@H](c2ccncc2NC(=O)c2nc(-c3nc(Cl)c(C#N)cc3F)ccc2N)C[C@@H](O)[C@]1(C)O [Example 131, 5-amino-6′-chloro-5′-cyano-N-(4-((1R,3R,4R,5S)-3,4-dihydroxy-4,5-dimethylcyclohexyl)pyridin-3-yl)-3′-fluoro-2,2′-bipyridine-6-carboxamide] |
| 162 | 7140 | 7140 | 2530 | > 25000 | > 25000 | C[C@H]1C[C@@H](c2ccncc2NC(=O)c2nc(-c3cc(F)ccn3)ccc2N)C[C@@H](O)[C@]1(C)O [Example 132, 5-amino-N-(4-((1R,3R,4R,5S)-3,4-dihydroxy-4,5-dimethylcyclohexyl)pyridin-3-yl)-4′-fluoro-2,2′-bipyridine-6-carboxamide] |
| 5.4 | 5370 | 5370 | 7.19 | 2630 | 182 | CC(=O)c1ccc(F)c(-c2ccc(N)c(C(=O)Nc3cnccc3[C@H]3C[C@@H](O)[C@](C)(O)[C@@H](C)C3)n2)n1 [Example 133, 6′-acetyl-5-amino-N-(4-((1R,3R,4R,5S)-3,4-dihydroxy-4,5-dimethylcyclohexyl)pyridin-3-yl)-3′-fluoro-2,2′-bipyridine-6-carboxamide] |
|  |  | 49 | 0.02 | 1.66 | 0.53 | Cc1cc(F)c(-c2nc(C(=O)Nc3cnccc3[C@H]3C[C@@H](N)[C@](C)(O)[C@@H](C)C3)c(N)cc2F)c(F)c1 [Example 146, 3-amino-N-(4-((1R,3R,4R,5S)-3-amino-4-hydroxy-4,5-dimethylcyclohexyl)pyridin-3-yl)-6-(2,6-difluoro-4-methylphenyl)-5-fluoropicolinamide] |
|  |  | 32 | 0.04 | 2.37 | 0.53 | C[C@H]1C[C@@H](c2ccncc2NC(=O)c2nc(-c3c(F)cccc3F)c(F)cc2N)C[C@@H](N)[C@]1(C)O [Example 147, 3-amino-N-(4-((1R,3R,4R,5S)-3-amino-4-hydroxy-4,5-dimethylcyclohexyl)pyridin-3-yl)-6-(2,6-difluorophenyl)-5-fluoropicolinamide] |
|  |  | 85 | 0.02 | 1.45 | 0.65 | C[C@H]1C[C@@H](c2ccncc2NC(=O)c2ccc(F)c(-c3c(F)cc(O[C@@H]4CCCOC4)cc3F)n2)C[C@@H](N)[C@]1(C)O [Example 148, N-(4-((1R,3R,4R,5S)-3-amino-4-hydroxy-4,5-dimethylcyclohexyl)pyridin-3-yl)-6-(2,6-difluoro-4-((R)-tetrahydro-2H-pyran-3-yloxy)phenyl)-5-fluoropicolinamide] |
